For the assay, the system named is PC-3 cells. Description: BrdU incorporation assay. It counts as cell-based. Particulars: read-out: IC50, inhibition of BrdU incorporation (proliferation). Here is the method: PC-3 cells were treated with 100 nM to 100 μM C3 for 24 hours and BrdU incorporation was quantified using HRP generated luminescence from an antibody pair recognizing BrdU (n=6, mean±SEM). C3 BrdU signal was normalized to a row where PC-3 cells were exposed to 0.5% DMSO (assay conditions). Curve obtained using GraphPAd Prism as described in the methods.
Cell Viability Screen. PC-3, Endo, TC2-Ras, SH-SY5Y, and LNCaP cells were seeded in 96-well plates at 1,500 cells per well using the Scepter cell counter (EMD Millipore). Cells were continuously incubated with compound using a 6-point dose curve: 100, 57.5, 32.4, 18.6, 10.5, and 6.0 μM in their respective complete media. Cell viability was measured by using the cell counting kit-8 (CCK-8, Dojindo). […] CCK-8 absorbance was measured at 450 nm using a GloMax Multimode Reader (Promega). Readings were performed the day after seeding to normalize for variations in cell seeding and after 96 hours of compound treatment. After each reading, CCK-8 media was removed and replaced with media containing compound as described previously. […] As described previously, an initial baseline CCK-8 reading was performed at 24 hours post seeding to correct for variations in seeding density. First, 450 nm values for each well were subtracted from media only readings to correct for baseline absorbance. […]

Each structure is given as a SMILES string. Like-named read-outs stand apart in the source and are kept apart here.

From patent US11022604B2, “Dock derived compound against laminin receptor (37 LR) and uses thereof” (Purdue Research Foundation, priority 2017, dated 2021) come the findings set out here.

For the molecule `O=C(c1cc(F)cc2c1OCOC2)N1CCN(C2c3ccccc3-c3ccccc32)CC1` [Compound C3, [4-(9h-fluoren-9-yl)piperazino](6-fluoro-4h-1,3-benzodioxin-8-yl)methanone], the IC50 reads like this: (24 hours) 10 µM; (Homo sapiens, PC-3, 24 h) 10.1 µM.
